From patent publication US9284321B2, “Piperazino[1,2-a]indol-1-ones and [1,4]diazepino[1,2-a]indol-1-one” (Hoffmann-La Roche Inc., priority 2012, dated 2016) come the findings set out here.

The subject of series [1] is human embryonic stem cell derived neural stem cells (NSCs). The series can be described thus: Neural Stem Cell Proliferation Assay (neurogenesis assay, ATP levels by CellTiterGlo). The class given is cell-based. Particulars: 96 h, compound concentration at which 150% activity of control (100%) is reached, NSC proliferation by ATP level after 4 days incubation, dose response 8 μM to 8 nM. Put shortly: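 Read-out is CellTiterGlo ATP luminescence after 4-day culture (37 °C, 5% CO2) of dual-SMAD-derived human ESC NSCs, dosed 4 h post-seeding at 8 μM to 8 nM (11 points, 2-fold). EC150 marks the concentration reaching 150% of the media-only control (0.25% DMSO).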
(In general: In ATP-based viability assays light output follows the ATP content of the culture.)

As a reminder, the melting point is the temperature of the solid-liquid transition. The molecule `N#Cc1cc(-c2ccnc(F)c2)c2c(c1)cc1n2CCNC1=O` [Example 177, 6-(2-Fluoro-pyridin-4-yl)-1-oxo-1,2,3,4-tetrahydro-pyrazino[1,2-a]indole-8-carbonitrile] showed a melting point of 289 °C. The EC (150% of control) in series [1] is 0.68 µM.
On the same counts, the results for `Cc1c2n(c3c(-c4ccc(F)nc4)cc(F)cc13)CCNC2=O` [Example 141, 8-Fluoro-6-(6-fluoro-pyridin-3-yl)-10-methyl-3,4-dihydro-2H-pyrazino[1,2-a]indol-1-one] are 247 °C and 0.13 µM.
`N#Cc1cc(-c2ccncc2)c2c(c1)cc1n2CCNC1=O` [Example 92, 1-Oxo-6-pyridin-4-yl-1,2,3,4-tetrahydro-pyrazino[1,2-a]indole-8-carbonitrile] came in with a melting point of 315.5 °C. The molecule further displayed an EC (150% of control) in series [1] of 0.047 µM.
The matching figures for `N#Cc1cc(-c2ccc(F)c(F)c2F)c2c(c1)cc1n2CCNC1=O` [Example 202, 1-Oxo-6-(2,3,4-trifluorophenyl)-3,4-dihydro-2H-pyrazino[1,2-a]indole-8-carbonitrile]: 294 °C and 0.046 µM.
As for `O=C1NCCn2c1cc1c(F)c(F)cc(-c3ccc(F)cc3)c12` [Example 32, 8,9-Difluoro-6-(4-fluoro-phenyl)-3,4-dihydro-2H-pyrazino[1,2-a]indol-1-one], the melting point amounted to 283.5 °C. Moreover, in series [1], the EC (150% of control) turned out to be 2.6 µM.
The matching figures for `Cc1ccc(-c2cc(C#N)cc3cc4n(c23)CCCNC4=O)cc1` [Example 287, 7-(4-Methylphenyl)-1-oxo-2,3,4,5-tetrahydro-[1,4]diazepino[1,2-a]indole-9-carbonitrile]: 240.5 °C and 0.22 µM.
As for `Cc1c2n(c3c(-c4ccc(N)nc4)cc(C#N)cc13)CCNC2=O` [Example 242, 6-(6-Aminopyridin-3-yl)-10-methyl-1-oxo-3,4-dihydro-2H-pyrazino[1,2-a]indole-8-carbonitrile], the melting point was determined as 332 °C. Besides, the EC (150% of control) in series [1] stood at 0.68 µM.
The molecule `Cc1c2n(c3c(-c4ccc5c(c4)CCO5)cc(F)cc13)CCNC2=O` [Example 129, 6-(2,3-Dihydro-benzofuran-5-yl)-8-fluoro-10-methyl-3,4-dihydro-2H-pyrazino[1,2-a]indol-1-one] gave a melting point of 251 °C. The EC (150% of control) in series [1] was found to be 0.022 µM.
On the same counts, the results for `COc1ccc(-c2cc(C#N)cc3cc4n(c23)CCNC4=O)cc1` [Example 79, 6-(4-Methoxy-phenyl)-1-oxo-1,2,3,4-tetrahydro-pyrazino[1,2-a]indole-8-carbonitrile] are 278.5 °C and 0.004 µM.
On the same counts, the results for `Cc1ccc(-c2cc(C#N)cc3c(C)c4n(c23)CCCNC4=O)cc1` [Example 288, 11-Methyl-7-(4-methylphenyl)-1-oxo-2,3,4,5-tetrahydro-[1,4]diazepino[1,2-a]indole-9-carbonitrile] are 287 °C and 0.04 µM.
Molecule `CS(=O)(=O)c1ccc(-c2cc(C#N)cc3cc4n(c23)CCNC4=O)cc1` [Example 191, 6-(4-Methylsulfonylphenyl)-1-oxo-3,4-dihydro-2H-pyrazino[1,2-a]indole-8-carbonitrile] displayed a melting point of 329 °C. For the same molecule, the EC (150% of control) in series [1] stood at 0.24 µM.
On the same counts, the results for `N#Cc1cc(-c2ccc(Cl)cc2Cl)c2c(c1)cc1n2CCCNC1=O` [Example 236, 7-(2,4-Dichlorophenyl)-1-oxo-2,3,4,5-tetrahydro-[1,4]diazepino[1,2-a]indole-9-carbonitrile] are 253 °C and 0.13 µM.
Molecule `O=C1NCCn2c1cc1cc(F)c(F)c(-c3ccc(F)c(F)c3)c12` [Example 44, 6-(3,4-Difluoro-phenyl)-7,8-difluoro-3,4-dihydro-2H-pyrazino[1,2-a]indol-1-one] had a melting point of 305 °C. The EC (150% of control) in series [1] is 0.3 µM.
In turn, `COc1ccc(-c2cc(Cl)cc3c(C)c4n(c23)CCCNC4=O)cc1` [Example 71, 9-Chloro-7-(4-methoxy-phenyl)-11-methyl-2,3,4,5-tetrahydro-[1,4]diazepino[1,2-a]indol-1-one] yielded a melting point of 240.5 °C. The same molecule returned an EC (150% of control) in series [1] of 0.021 µM.
On to `O=C1NCCn2c1cc1c(F)c(F)cc(-c3ccc(Cl)cc3)c12` [Example 34, 6-(4-Chloro-phenyl)-8,9-difluoro-3,4-dihydro-2H-pyrazino[1,2-a]indol-1-one], for which the melting point turned out to be 327 °C. The molecule also registered an EC (150% of control) in series [1] of 1.4 µM.
Take `N#Cc1cc(-c2ccc(Cl)cc2)c2c(c1)cc1n2CCCNC1=O` [Example 214, 7-(4-Chlorophenyl)-1-oxo-2,3,4,5-tetrahydro-[1,4]diazepino[1,2-a]indole-9-carbonitrile]: the melting point was 245.5 °C. Also, in series [1], the EC (150% of control) is 0.14 µM.
For the molecule `Cc1c2n(c3c(-c4ccncc4)cc(C#N)cc13)CCNC2=O` [Example 243, 10-Methyl-1-oxo-6-pyridin-4-yl-3,4-dihydro-2H-pyrazino[1,2-a]indole-8-carbonitrile], the melting point stood at 307 °C. In addition, the EC (150% of control) in series [1] is 0.09 µM.
The matching figures for `N#Cc1cc(-c2ccc(Cl)cc2F)c2c(c1)cc1n2CCNC1=O` [Example 174, 6-(4-Chloro-2-fluoro-phenyl)-1-oxo-1,2,3,4-tetrahydro-pyrazino[1,2-a]indole-8-carbonitrile]: 278 °C and 0.019 µM.
The matching figures for `N#Cc1cc(-c2ccc(F)c(F)c2)c2c(c1)cc1n2CCNC1=O` [Example 76, 6-(3,4-Difluoro-phenyl)-1-oxo-1,2,3,4-tetrahydro-pyrazino[1,2-a]indole-8-carbonitrile]: 289.5 °C and 0.02 µM.
On the same counts, the results for `Cc1c2n(c3c(-c4ncc(C(F)(F)F)s4)cc(F)cc13)CCNC2=O` [Example 186, 8-Fluoro-10-methyl-6-[5-(trifluoromethyl)-1,3-thiazol-2-yl]-3,4-dihydro-2H-pyrazino[1,2-a]indol-1-one] are 263 °C and 0.33 µM.
`Cc1c2n(c3c(-c4ccc(OC(F)(F)F)cc4)cc(C#N)cc13)CCNC2=O` [Example 170, 10-Methyl-1-oxo-6-(4-trifluoromethoxy-phenyl)-1,2,3,4-tetrahydro-pyrazino[1,2-a]indole-8-carbonitrile]: the melting point is 239 °C. For the same molecule, the EC (150% of control) in series [1] was 0.014 µM.
The matching figures for `O=C1NCCn2c1cc1cc(F)cc(-c3ccc(F)c(F)c3)c12` [Example 22, 6-(3,4-Difluoro-phenyl)-8-fluoro-3,4-dihydro-2H-pyrazino[1,2-a]indol-1-one]: 289.5 °C and 0.037 µM.
`Cc1c2n(c3c(-c4ccncc4)cc(F)cc13)CCNC2=O` [Example 83, 8-Fluoro-10-methyl-6-pyridin-4-yl-3,4-dihydro-2H-pyrazino[1,2-a]indol-1-one] gave a melting point of 290 °C. Besides, in series [1], the EC (150% of control) came out at 0.039 µM.
Turning to `O=C1NCCCn2c1cc1cc(F)c(F)c(-c3ccc(F)cc3)c12` [Example 40, 8,9-Difluoro-7-(4-fluoro-phenyl)-2,3,4,5-tetrahydro-[1,4]diazepino[1,2-a]indol-1-one], the melting point came out at 223.5 °C. The molecule also had an EC (150% of control) in series [1] of 0.024 µM.
`N#Cc1cc(-c2ccc(Cl)c(Cl)c2)c2c(c1)cc1n2CCNC1=O` [Example 192, 6-(3,4-Dichlorophenyl)-1-oxo-3,4-dihydro-2H-pyrazino[1,2-a]indole-8-carbonitrile] yielded a melting point of 330.5 °C. This molecule also showed an EC (150% of control) in series [1] of 0.13 µM.
With `O=C1NCCCn2c1cc1cc(F)cc(-c3ccncc3)c12` [Example 20, 9-Fluoro-7-pyridin-4-yl-2,3,4,5-tetrahydro-[1,4]diazepino[1,2-a]indol-1-one], the melting point was 309 °C. The same molecule yielded an EC (150% of control) in series [1] of 0.037 µM.
With `Cc1c2n(c3c(-c4ccnc(F)c4)cc(F)cc13)CCNC2=O` [Example 139, 8-Fluoro-6-(2-fluoro-pyridin-4-yl)-10-methyl-3,4-dihydro-2H-pyrazino[1,2-a]indol-1-one], the melting point is 240 °C. Also, in series [1], the EC (150% of control) was found to be 0.027 µM.
On the same counts, the results for `Cc1c2n(c3c(-c4ccc(F)c(F)c4)cc(C#N)cc13)CCNC2=O` [Example 164, 6-(3,4-Difluoro-phenyl)-10-methyl-1-oxo-1,2,3,4-tetrahydro-pyrazino[1,2-a]indole-8-carbonitrile] are 243 °C and 0.045 µM.
The molecule `Cc1c2n(c3c(-c4ccc(CO)cc4)cc(Cl)cc13)CCNC2=O` [Example 110, 8-Chloro-6-(4-hydroxymethyl-phenyl)-10-methyl-3,4-dihydro-2H-pyrazino[1,2-a]indol-1-one] registered a melting point of 211 °C. The EC (150% of control) in series [1] was found to be 0.014 µM.
As for `Cc1c2n(c3c(-c4ccc(F)nc4)cc(Cl)cc13)CCNC2=O` [Example 114, 8-Chloro-6-(6-fluoro-pyridin-3-yl)-10-methyl-3,4-dihydro-2H-pyrazino[1,2-a]indol-1-one], the melting point turned out to be 270 °C. Moreover, in series [1], the EC (150% of control) came out at 0.04 µM.
The matching figures for `Cc1c2n(c3c(-c4ccc(Cl)cc4)cc(Cl)cc13)CCNC2=O` [Example 65, 8-Chloro-6-(4-chloro-phenyl)-10-methyl-3,4-dihydro-2H-pyrazino[1,2-a]indol-1-one]: 236.5 °C and 0.019 µM.
In the case of `Cc1c2n(c3c(-c4cc(F)cc(F)c4)cc(Cl)cc13)CCNC2=O` [Example 99, 8-Chloro-6-(3,5-difluoro-phenyl)-10-methyl-3,4-dihydro-2H-pyrazino[1,2-a]indol-1-one], the melting point stood at 241 °C. The molecule further showed an EC (150% of control) in series [1] of 0.12 µM.
